From ChEMBL document CHEMBL1938377, “Synthesis and evaluation of 17α-E-20-(heteroaryl)norpregn-1,3,5(10),20 tetraene-3,17β-diols [17α-(heteroaryl)vinyl estradiols] as ligands for the estrogen receptor-α ligand binding domain (ERα-LBD)” (Bioorg Med Chem Lett, 2012) come the findings set out here.

Molecules are shown by their SMILES. Activity calls are given as the source filed them. The rule behind the calls is not given here.

Assay [1] can be described thus: Agonist activity at estrogen receptor in human Ishikawa cells assessed as increase of alkaline phosphatase level after 3 days using P-nitrophenyl phosphate as substrate relative to estradiol. The assay is classed as functional.
In assay [2] the target is T1, Estrogen receptor (Homo sapiens) (UniProt P03372).
T1 sequence (whole entry): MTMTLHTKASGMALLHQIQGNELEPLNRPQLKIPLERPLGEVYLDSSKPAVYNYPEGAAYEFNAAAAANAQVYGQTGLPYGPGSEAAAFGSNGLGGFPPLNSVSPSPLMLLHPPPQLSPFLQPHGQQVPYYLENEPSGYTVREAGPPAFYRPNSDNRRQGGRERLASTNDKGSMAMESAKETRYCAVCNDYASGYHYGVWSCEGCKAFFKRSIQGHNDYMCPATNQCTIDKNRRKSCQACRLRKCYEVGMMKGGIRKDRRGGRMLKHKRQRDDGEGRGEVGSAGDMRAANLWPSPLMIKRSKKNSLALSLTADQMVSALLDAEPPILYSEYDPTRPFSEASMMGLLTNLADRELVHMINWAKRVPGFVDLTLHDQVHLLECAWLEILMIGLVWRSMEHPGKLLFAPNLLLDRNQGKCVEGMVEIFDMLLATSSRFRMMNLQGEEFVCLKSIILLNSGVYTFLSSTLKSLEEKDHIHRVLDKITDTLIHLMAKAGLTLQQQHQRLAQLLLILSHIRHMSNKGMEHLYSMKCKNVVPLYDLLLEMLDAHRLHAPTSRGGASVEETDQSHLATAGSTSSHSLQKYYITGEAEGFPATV
Description: Displacement of [3H]-estradiol from human […] LBD expressed in Escherichia coli at 1 uM to 1 pM relative to estradiol. In general terms: Displacement assays read how much labelled ligand stays bound in the presence of the test substance.

The subject of another assay is Ishikawa. Description: Antagonist activity at estrogen receptor in human Ishikawa cells assessed as inhibition of estradiol-induced alkaline phosphatase level after 3 days using P-nitrophenyl phosphate as substrate. The assay is classed as functional, cell-based.
A short description of assay [3]: Agonist activity at estrogen receptor in human Ishikawa cells assessed as increase of alkaline phosphatase level after 3 days using P-nitrophenyl phosphate as substrate. The assay is classed as functional, cell-based. The settings on record: 72 h.

With `C[C@]12CC[C@@H]3c4ccc(O)cc4CC[C@H]3[C@@H]1CC[C@@]2(O)/C=C/c1cccs1`, in assay [1], the RSA worked out at 2.5%. In assay [2], this molecule registered an RBA of 2.7. In addition, the inhibition entry in the assay on Ishikawa was “inactive”.

In the case of `C[C@]12CC[C@@H]3c4ccc(O)cc4CC[C@H]3[C@@H]1CC[C@@]2(O)/C=C/c1cncnc1`, in assay [1], the RSA was found to be 0.4%. The same molecule had an RBA in assay [2] of 0.8. Moreover, the inhibition result in the assay with Ishikawa was “inactive”.

As for `C[C@]12CC[C@@H]3c4ccc(O)cc4CC[C@H]3[C@@H]1CC[C@@]2(O)/C=C/c1ccccn1`, in assay [1], the RSA was determined as 0.1%. The molecule further displayed an RBA in assay [2] of 1.5. The inhibition entry with Ishikawa is “inactive”.

For `C[C@]12CC[C@@H]3c4ccc(O)cc4CC[C@H]3[C@@H]1CC[C@@H]2O` [ESTRADIOL], the EC50 in assay [3] was found to be 0.9 nM.

Take `C[C@]12CC[C@@H]3c4ccc(O)cc4CC[C@H]3[C@@H]1CC[C@@]2(O)/C=C/c1ccccc1`: in assay [1], the RSA came to 9.5%. The molecule further came in with an RBA in assay [2] of 10.3. Besides, the inhibition result in the assay with Ishikawa is “inactive”.

With `C[C@]12CC[C@@H]3c4ccc(O)cc4CC[C@H]3[C@@H]1CC[C@@]2(O)/C=C/c1ccncc1`, the RSA in assay [1] was 0.1%. The molecule also displayed an RBA in assay [2] of 2.5. In addition, the inhibition entry in the assay on Ishikawa is “inactive”.

In the case of `C[C@]12CC[C@@H]3c4ccc(O)cc4CC[C@H]3[C@@H]1CC[C@@]2(O)/C=C/c1cccnc1`, the RSA in assay [1] stood at 0.25%. In assay [2], the RBA came out at 4. For the same molecule, in the assay with Ishikawa, the inhibition entry was “inactive”.

Turning to `C[C@]12CC[C@@H]3c4ccc(O)cc4CC[C@H]3[C@@H]1CC[C@@]2(O)/C=C/c1ccsc1`, in assay [1], the RSA was 2.5%. The same molecule registered an RBA in assay [2] of 2.9. For the same molecule, the inhibition entry with Ishikawa was “inactive”.

What is called EC50 is the concentration that produces a half-maximal response.
